Columns and labels:
FadD23 [1] = biological target: T1, FadD23 (Mycobacterium tuberculosis, UniProt P9WQ47); experiment: crystal structure ([…] Å), with palmitic acid bound; format: binding
T1 construct: full-length

FadD23 [2] = biological target: T1, FadD23; experiment: crystal structure ([…] Å), formed from ATP and palmitic acid; format: binding
FadD23 [3] = biological target: T1, FadD23; experiment: SPR; also crystal structure with AMP-PNP, MS, DSF and hydroxamate-MesG assay; format: binding
CCCCCCCCCCCC(=O)O = experiment: purified protein; conditions: ATP, Mg2+
FadD23 [4] = biological target: T1, FadD23; experiment: SPR; format: binding

T1 sequence (P9WQ47 whole entry): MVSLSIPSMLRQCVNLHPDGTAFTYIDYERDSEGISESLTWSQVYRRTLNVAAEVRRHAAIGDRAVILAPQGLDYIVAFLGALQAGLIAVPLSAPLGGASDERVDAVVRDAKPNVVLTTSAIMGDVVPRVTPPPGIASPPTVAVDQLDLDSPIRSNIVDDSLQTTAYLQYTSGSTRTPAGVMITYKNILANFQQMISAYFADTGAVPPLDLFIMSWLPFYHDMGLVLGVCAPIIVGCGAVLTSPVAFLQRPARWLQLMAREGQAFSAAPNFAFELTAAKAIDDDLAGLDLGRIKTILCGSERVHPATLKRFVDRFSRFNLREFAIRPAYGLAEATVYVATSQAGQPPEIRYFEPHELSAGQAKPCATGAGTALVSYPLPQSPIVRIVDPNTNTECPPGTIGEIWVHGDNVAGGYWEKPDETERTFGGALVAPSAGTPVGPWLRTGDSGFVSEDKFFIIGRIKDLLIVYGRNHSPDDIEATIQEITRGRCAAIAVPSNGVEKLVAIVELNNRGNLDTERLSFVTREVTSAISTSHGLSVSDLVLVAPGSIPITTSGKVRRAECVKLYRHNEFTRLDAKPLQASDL

Molecule: Nc1ncnc2c1ncn2[C@@H]1O[C@H](CO[P@](=O)(O)O[P@](=O)(O)NP(=O)(O)O)[C@@H](O)[C@H]1O [AMP-PNP]
- crystal structure (2.25 Å), with palmitic acid bound (FadD23 [1]): In the AMP-PNP-FadD23 complex, the O27 of AMP-PNP interacted with NE of Arg460 through hydrogen bond

Molecule: CCCCCCCCCCCCCCCC(=O)OP(=O)(O)OC[C@H]1O[C@@H](n2cnc3c(N)ncnc32)[C@H](O)[C@@H]1O [AMP-C16, hexadecanoyl adenylate]
- crystal structure (2.68 Å), formed from ATP and palmitic acid (FadD23 [2]): FadD23 catalyzed the hydrolysis of ATP and connected AMP with palmitic acid to generate a molecule of AMP-C16.

Molecule: CCCCCCCCCCCCCCCC(=O)O [palmitic acid]
- Kd (FadD23 [3]): 34.5 µM

Molecule: FadD23 (Mycobacterium tuberculosis H37Rv)
- Km (CCCCCCCCCCCC(=O)O): 33.56 ± 5.40 µmol/L
- Vmax (CCCCCCCCCCCC(=O)O): 0.00108 µmol/min
- kcat (CCCCCCCCCCCC(=O)O): 0.00239 s⁻¹
- kcat/Km (CCCCCCCCCCCC(=O)O): 71.2 M⁻¹ s⁻¹

Molecule: Nc1ncnc2c1ncn2[C@@H]1O[C@H](COP(=O)(O)OP(=O)(O)OP(=O)(O)O)[C@@H](O)[C@H]1O [ATP]
- Kd (FadD23 [4]): ~1000 nM

From paper PMC9989471, “The Key Roles of Mycobacterium tuberculosis FadD23 C-terminal Domain in Catalytic Mechanisms” (Frontiers in Microbiology, 2023)
